Data: patent US7833991B2, “Amine compound and use thereof” (Kureha Corporation, priority 2002, dated 2010)

Experiments:
[1] = target: T1, CXCR4 (Homo sapiens, UniProt P61073); experiment: Inhibition of 125I-SDF-1α binding to receptors CXCR4 on MT-4 cells (Test Examples 2 and 5); conditions: binding-inhibition % at 0.1 μM, as in Test Example 2; Table 5; read-out: CXCR4 Activity % at 0.1 μM
T1 construct: endogenous in cells; host or cells: MT-4 cells
Experimental: MT-4 cells (5×10^6/0.2 ml/well) were cultured on a 24-well microtiter plate. After the cells were incubated for 24 hours at 37° C. in a carbon dioxide gas incubator, a culture medium was replaced with a buffer solution (0.1% BSA-containing RPMI-1640). Together with a ligand ^125I-SDF-1α, (specific activity: 2,200 Ci/mmol; available from Daiichi Pure Chemicals Co., Ltd. (Tokyo)), test materials with various concentrations were subjected to a binding reaction for 2 hours under ice-cooling. […] Then, a rate of inhibition of the binding between radio-active ligands and receptors CXCR4 by a test material was calculated (a binding-inhibition % at 0.1 μM).
(§1) Compounds of the present invention having various substituted and unsubstituted heterocyclic rings for the substituent A2 of formula (1) were tested for antiviral (anti-HIV) activity as in Test Example 1 and for CXCR4 activity as in Test Example 2. The compounds, various substituents of the compounds, antiviral activity represented by the concentration required for inhibition of all disorder due to HIV injection by 50% (EC50: 50% Effective Concentration, μM), and CXCR4 activity calculated as a rate of inhibition of the binding between radioactive ligands and CXCR4 receptors by a test material (a binding-inhibition % at 0.1 μM) are shown in Table 5: […]

[2] = system: HIV-1IIIB infected MT-4 cells; experiment: Antiviral activity in HIV-1IIIB infected MT-4 cells, MTT method (Test Examples 1 and 5); assay type: cell-based; conditions: Human immunodeficiency virus 1, MT4; as in Test Example 1; Table 5; read-out: HIV Activity EC50
Experimental: Immediately after infection, HIV-1IIIB infected MT-4 cells (3.0×10^4/well, MOI (Multiplicity of infection): 0.01) were added to a 96-well microtiter plate together with the test compounds having different concentrations. The cells were cultured in a carbon dioxide incubator at 37° C. for 5 days, and the number of living cells was measured in accordance with the MTT (tetrazolium) method (Pawels, et al., Journal of Virology Method, 20, 309-321 ([…])). The antiviral activity is represented by the concentration required for inhibition of cell disorder due to HIV by 50% (EC50: 50% Effective Concentration) (μM), and the results are shown in Table 2.
as §1

T1 sequence (P61073 whole entry): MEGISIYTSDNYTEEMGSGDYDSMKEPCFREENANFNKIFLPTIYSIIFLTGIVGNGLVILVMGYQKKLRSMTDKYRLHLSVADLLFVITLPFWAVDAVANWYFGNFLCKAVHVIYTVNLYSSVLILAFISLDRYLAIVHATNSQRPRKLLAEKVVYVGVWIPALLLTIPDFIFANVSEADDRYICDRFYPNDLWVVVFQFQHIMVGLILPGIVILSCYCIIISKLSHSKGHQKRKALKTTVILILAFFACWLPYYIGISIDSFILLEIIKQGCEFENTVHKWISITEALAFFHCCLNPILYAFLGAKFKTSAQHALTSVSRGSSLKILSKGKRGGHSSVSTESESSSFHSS

| Structure (SMILES) | inhibition at 0.1 µM [1] | EC50 [2] |
| --- | --- | --- |
| CCCN(CCC)c1ccc(NC(=O)c2ccc(CN(Cc3ncc[nH]3)Cc3ncc[nH]3)cc2)cc1 [Compound No. 15, 4-{[bis(1H-imidazol-2-ylmethyl)-amino]-methyl}-N-(4-dipropylaminophenyl)-benzamide] | 46.9% |  |
| CCCN(CCC)Cc1cccc(NC(=O)c2ccc(CN(Cc3ncc[nH]3)Cc3ncc[nH]3)cc2)c1 [Compound No. 33, 4-{[bis(1H-imidazol-2-ylmethyl)-amino]-methyl}-N-(3-dipropylaminomethylphenyl)-benzamide] | 97.8% | 46 nM |
| CCCN(CCC)Cc1ccc(NC(=O)c2ccc(CN(Cc3ncc[nH]3)Cc3ncc[nH]3)c3ccccc23)cc1 [Compound No. 36, 4-{[bis(1H-imidazol-2-ylmethyl)-amino]-methyl}-naphtalene-1-carboxylic acid (4-dipropylaminomethylphenyl)-amide] | 89.6% | 501 nM |
| CCCN(CCC)Cc1ccc(NC(=O)c2ccc(CN(Cc3nccn3C)Cc3nccn3C)cc2)cc1 [Compound No. 41, 4-{[bis(1-methyl-1H-imidazol-2-ylmethyl)-amino]-methyl}-N-(4-dipropylaminomethylphenyl)-benzamide] |  | 3 nM |
| CCCN(CCC)Cc1ccc(NC(=O)c2ccc(CN(Cc3cc4ccccc4cn3)Cc3ncc[nH]3)cc2)cc1 [Compound No. 47, N-(4-dipropylaminomethylphenyl)-4-{[(1H-imidazol-2-ylmethyl)-(isoquinolin-3-ylmethyl)-amino]-methyl}-benzamide] | 98.8% | 20 nM |
| CCCN(CCC)Cc1ccc(NC(=O)c2ccc(CN(Cc3ccccn3)Cc3ncc[nH]3)cc2)cc1 [Compound No. 48, N-(4-dipropylaminomethylphenyl)-4-{[(1H-imidazol-2-ylmethyl)-(pyridin-2-ylmethyl)-amino]-methyl}-benzamide] | 97.7% | 22 nM |
| CCCN(CCC)Cc1ccc(NC(=O)c2ccc(CN(Cc3ncc[nH]3)Cc3ncccc3C)cc2)cc1 [Compound No. 53, N-(4-dipropylaminomethylphenyl)-4-{[(1H-imidazol-2-ylmethyl)-(3-methylpyridin-2-ylmethyl)-amino]-methyl}-benzamide] | 97.7% | 9 nM |
| CCCN(CCC)Cc1ccc(NC(=O)c2ccc(CN(Cc3ccc4ccccc4n3)Cc3ncc[nH]3)cc2)cc1 [Compound No. 55, N-(4-dipropylaminomethylphenyl)-4-{[(1H-imidazol-2-ylmethyl)-(quinolin-2-ylmethyl)-amino]-methyl}-benzamide] | 21% | 635 nM |
| CCCN(CCC)Cc1ccc(NC(=O)c2ccc(CN(Cc3ccc(C)cn3)Cc3ncc[nH]3)cc2)cc1 [Compound No. 56, N-(4-dipropylaminomethylphenyl)-4-{[(1H-imidazol-2-ylmethyl)-(5-methylpyridin-2-ylmethyl)-amino]-methyl}-benzamide] | 98.8% | 3 nM |
| CCCN(CCC)Cc1ccc(NC(=O)c2ccc(CN(Cc3ccncc3)Cc3ncc[nH]3)cc2)cc1 [Compound No. 58, N-(4-dipropylaminomethylphenyl)-4-{[(1H-imidazol-2-ylmethyl)-(pyridin-4-ylmethyl)-amino]-methyl}-benzamide] | 18.6% | 97 nM |
| CCCN(CCC)Cc1ccc(NC(=O)c2ccc(CN(Cc3ncc[nH]3)Cc3ncccc3OCC)cc2)cc1 [Compound No. 59, N-(4-dipropylaminomethylphenyl)-4-{[(1H-imidazol-2-ylmethyl)-(3-ethoxypyridin-2-ylmethyl)-amino]-methyl}-benzamide] | 98.2% | 24 nM |
| CCCN(CCC)Cc1ccc(NC(=O)c2ccc(CN(Cc3ncc[nH]3)Cc3nccc4ccccc34)cc2)cc1 [Compound No. 63, N-(4-dipropylaminomethylphenyl)-4-{[(1H-imidazol-2-ylmethyl)-(isoquinolin-1-ylmethyl)-amino]-methyl}-benzamide] | 14.7% | 81 nM |
| CCCN(CCC)Cc1ccc(NC(=O)c2ccc(CN(Cc3ncc[nH]3)Cc3ncc(C)c(OC)c3C)cc2)cc1 [Compound No. 64, N-(4-dipropylaminomethylphenyl)-4-{[(1H-imidazol-2-ylmethyl)-(4-methoxy-3,5-dimethylpyridin-2-ylmethyl)-amino]-methyl}-benzamide] | 100% | 18 nM |
| CCCN(CCC)Cc1ccc(NC(=O)c2ccc(CN(Cc3ccc4cccc(O)c4n3)Cc3ncc[nH]3)cc2)cc1 [Compound No. 72, N-(4-dipropylaminomethylphenyl)-4-{[(8-hydroxyquinolin-2-ylmethyl)-(1H-imidazol-2-ylmethyl)-amino]-methyl}-benzamide] | 100% | 4 nM |
| CCCN(CCC)Cc1ccc(NC(=O)c2ccc(CN(Cc3ccc(C)cn3)Cc3nccn3C)cc2)cc1 [Compound No. 76, N-(4-dipropylaminomethylphenyl)-4-{[(1-methyl-1H-imidazol-2-ylmethyl)-(5-methylpyridin-2-ylmethyl)-amino]-methyl}-benzamide] |  | 7 nM |
| CCCN(CCC)Cc1ccc(NC(=O)c2ccc(CN(Cc3cc(C)ccn3)Cc3ncc[nH]3)cc2)cc1 [Compound No. 78, N-(4-dipropylaminomethylphenyl)-4-{[N-(1H-imidazol-2-ylmethyl)-(4-methylpyridin-2-ylmethyl)-amino]-methyl}-benzamide] |  | 19 nM |
| Cn1ccnc1CN(Cc1ccc(C(=O)Nc2ccc(CNC3CCCCC3)cc2)cc1)Cc1ncc[nH]1 [Compound No. 88, N-(4-cyclohexylaminomethylphenyl)-4-{[(1H-imidazol-2-ylmethyl)-(1-methyl-1H-imidazol-2-ylmethyl)-amino]-methyl}-benzamide] | 99% | 5 nM |
| O=C(Nc1ccc(CNC2CCCCC2)cc1)c1ccc(CN(Cc2ncc[nH]2)Cc2ncc[nH]2)cc1 [Compound No. 89, 4-{[bis(1H-imidazol-2-ylmethyl)-amino]-methyl}-N-(4-cyclohexylaminomethylphenyl)-benzamide] |  | 9 nM |
| CCCN(CCC)Cc1ccc(NC(=O)c2ccc(CN(Cc3ncc[nH]3)Cc3nccn3CC)cc2)cc1 [Compound No. 91, N-(4-dipropylaminomethylphenyl)-4-{[(1-ethyl-1H-imidazol-2-ylmethyl)-(1H-imidazol-2-ylmethyl)-amino]-methyl}-benzamide] |  | 15 nM |
| CCCN(CCC)Cc1ccc(NC(=O)c2ccc(CN(Cc3ncc[nH]3)Cc3nccn3CCC)cc2)cc1 [Compound No. 92, N-(4-dipropylaminomethylphenyl)-4-{[(1H-imidazol-2-ylmethyl)-(1-propyl-1H-imidazol-2-ylmethyl)-amino]-methyl}-benzamide] |  | 48 nM |
| CCCN(CCC)Cc1ccc(NC(=O)c2ccc(CN(Cc3ncc[nH]3)Cc3nccn3CCO)cc2)cc1 [Compound No. 94, N-(4-dipropylaminomethylphenyl)-4-({[1-(2-hydroxyethyl)-1H-imidazol-2-ylmethyl]-(1H-imidazol-2-ylmethyl)-amino}-methyl)-benzamide] | 100% | 3 nM |
| CCCN(CCC)Cc1ccc(NC(=O)c2ccc(CN(Cc3ncc[nH]3)Cc3ncc(C)cc3C)cc2)cc1 [Compound No. 101, 4-{[(3,5-dimethyl-pyridin-2-ylmethyl)-(1H-imidazol-2-ylmethyl)-amino]-methyl}-N-(4-dipropylaminomethyl-phenyl)-benzamide] | 99.1% | 5 nM |
| CCCN(CCC)Cc1ccc(NC(=O)c2ccc(CN(Cc3ccc(CC)cn3)Cc3ncc[nH]3)cc2)cc1 [Compound No. 102, N-(4-dipropylaminomethyl-phenyl)-4-{[(5-ethyl-pyridin-2-ylmethyl)-(1H-imidazol-2-ylmethyl)-amino]-methyl}-benzamide] | 98.4% | 3 nM |
| CCCN(CCC)Cc1ccc(NC(=O)c2ccc(CN(Cc3nc[nH]n3)Cc3ncc[nH]3)cc2)cc1 [Compound No. 114, N-(4-di-n-propylaminomethyl-phenyl)-4-{[(1H-imidazol-2-ylmethyl)-(1H-[1,2,4]-triazol-3-ylmethyl)-amino]-methyl}-benzamide] | 96.4% | 89 nM |
| CCCN(CCC)Cc1ccc(NC(=O)c2ccc(CN(Cc3nc[nH]n3)Cc3nccn3C)cc2)cc1 [Compound No. 123, N-(4-di-n-propylaminomethyl-phenyl)-4-{[(1-methyl-imidazol-2-ylmethyl)-(1H-[1,2,4]-triazol-3-ylmethyl)-amino]-methyl}-benzamide] |  | 68 nM |
